Results: PubChem BioAssay AID1963970 (Molecular Pharmacology Branch, DTP, NCI, 2024)

Tested on: 931267-113-T-J1-PDC multicell spheroid viability
Test: Anticancer human tumor 931267-113-T-J1-PDC patient-derived colon adenocarcinoma cell line growth inhibition [PI3K]
Details: for IC50: curve of first compound; for viability, T/C: stronger effect = lower value
From the text: Combinatorial screen of targeted agents with the PI3K inhibitors inavolisib, alpelisib, duvelisib, and copanlisib in multi-cell type tumor spheroids
A high-throughput screen of multi-cell type tumor spheroids was designed to identify active combinations of targeted small molecules and PI3K pathway inhibitors. Complex spheroids include a stromal component modeled by human endothelial cells (HUVEC) and fibroblasts modeled by human mesenchymal stem cells (MSCs). The concentration ranges selected for each drug and investigational agent were based upon clinically achievable concentrations if the clinical Cmax of the agent was known.
Compounds. The drugs and investigational agents: inavolisib (NSC800729), alpelisib (NSC765974), duvelisib (NSC772469), copanlisib (NSC816437), ipatasertib (NSC767898), afuresertib (NSC778305), talazoparib (NSC767125), sapanisertib (NSC764658), selumetinib (NSC741078), tovorafenib (DAY101, NSC766906), vemurafenib (NSC761431), ravoxertinib (NSC781343), sotorasib (NSC818433), MRTX1133 (NSC 836407), abemaciclib (NSC 768073), palbociclib (NSC758247), venetoclax (NSC 766270), SY5609 (NSC837396), enzalutamide (NSC755605), and darolutamide (NSC825331), were obtained from the National Cancer Institute (NCI) Developmental Therapeutics Program Chemical Repository. The FDA-approved anticancer drug set is available from the NCI Developmental Therapeutics Program. […] The stock solutions were prepared in dimethyl sulfoxide (DMSO, Sigma-Aldrich, St. Louis, MO, cat. D2650) at 800-fold the tested concentration and stored at -70 degrees C prior to their use. All drugs and investigational agents were tested over a range starting from a high concentration at or near the clinical Cmax and decreasing in half-log increments. If the clinical Cmax for an agent had not been determined, the highest concentration tested was 10 microM.
Cell Culture. All cells were maintained in an incubator at 37 degrees C and 5% CO2 with 95% humidity. The PDC lines were cultured according to standard operating procedures established by the NCI PDMR (https://pdmr.cancer.gov/sops/default.htm). All PDCs were thawed and cultured in Matrigel-coated flasks prepared with a working solution of 1X Ham's F-12 nutrient mix, without supplementation (Invitrogen, Waltham, MA, cat. 11765054), 100 U/mL penicillin-streptomycin (Invitrogen, cat. 15140122), and 2.5% Matrigel (Corning Inc., Corning, NY, cat. 354248) for the first three passages. The 354836-022-R-J1-PDC, 475296-252-R-J1-PDC, and 997726-040-R-J2-PDC lines were cultured in 6A media, which includes advanced DMEM/F-12 (Thermo Fisher Scientific, cat. 12634028), 10 mM HEPES (Thermo Fisher Scientific, cat. 15630080), 1X GlutaMAX supplement (Thermo Fisher Scientific, cat. 35050061), 0.1 mg/mL primocin (InvivoGen, San Diego, CA, cat. ant-pm-2), 10% defined fetal bovine serum, heat inactivated (HyClone Laboratories Inc., Logan, UT, cat. SH30070.03HI), 50% L-WRN conditioned media (ATCC, cat. CRL-3276), 1.25 mM N-Acetyl-L-cysteine (Sigma-Aldrich, cat. A9165), 10 mM nicotinamide (Sigma-Aldrich, cat. N0636), 1X B-27 supplement (Thermo Fisher Scientific, cat. 17504044), 1X N-2 supplement (Thermo Fisher Scientific, cat. 17502048), and 10 microM Y-27632 dihydrochloride (Tocris Bioscience, Bristol, United Kingdom, cat. 1254). The 624824-186-R-J2-PDC line was cultured in 6C/Colon 1B media, which includes all 6A media components plus 50 ng/mL human EGF recombinant protein (Thermo Fisher Scientific, cat. PHG0311). […]

[1] = second compound 0.00316 µM, first compound 0.0316 µM
[2] = second compound 0.00316 µM, first compound 0.1 µM
[3] = second compound 0.00316 µM, first compound 0.316 µM
[4] = second compound 0.00316 µM, first compound 1 µM
[5] = second compound 0.00316 µM, first compound 3.16 µM
[6] = second compound 0.00316 µM, first compound 10 µM
[7] = second compound 0.01 µM, first compound 0.0316 µM
[8] = second compound 0.01 µM, first compound 0.1 µM
[9] = second compound 0.01 µM, first compound 0.316 µM
[10] = second compound 0.01 µM, first compound 1 µM
[11] = second compound 0.01 µM, first compound 3.16 µM
[12] = second compound 0.01 µM, first compound 10 µM
[13] = second compound 0.0316 µM, first compound 0.0316 µM
[14] = second compound 0.0316 µM, first compound 0.1 µM
[15] = second compound 0.0316 µM, first compound 0.316 µM
[16] = second compound 0.0316 µM, first compound 1 µM
[17] = second compound 0.0316 µM, first compound 3.16 µM
[18] = second compound 0.0316 µM, first compound 10 µM
[19] = second compound 0.1 µM, first compound 0.0316 µM
[20] = second compound 0.1 µM, first compound 0.1 µM
[21] = second compound 0.1 µM, first compound 0.316 µM
[22] = second compound 0.1 µM, first compound 1 µM
[23] = second compound 0.1 µM, first compound 3.16 µM
[24] = second compound 0.1 µM, first compound 10 µM
[25] = second compound 0.316 µM, first compound 0.0316 µM
[26] = second compound 0.316 µM, first compound 0.1 µM
[27] = second compound 0.316 µM, first compound 0.316 µM
[28] = second compound 0.316 µM, first compound 1 µM
[29] = second compound 0.316 µM, first compound 3.16 µM
[30] = second compound 0.316 µM, first compound 10 µM
[31] = second compound 1 µM, first compound 0.0316 µM
[32] = second compound 1 µM, first compound 0.1 µM
[33] = second compound 1 µM, first compound 0.316 µM
[34] = second compound 1 µM, first compound 1 µM
[35] = second compound 1 µM, first compound 3.16 µM
[36] = second compound 1 µM, first compound 10 µM
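Also: viability read 7 days after compound addition.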

With `C#Cc1c(F)ccc2cc(O)cc(-c3ncc4c(N5CC6CCC(C5)N6)nc(OCC56CCCN5CC(F)C6)nc4c3F)c12` (stereo unspecified) + COc1c(OCCCN2CCOCC2)ccc2c3n(c(=NC(=O)c4cnc(N)nc4)nc12)CCN3 the IC50 (second compound 0.00316 µM) was 384 nM, the IC50 (second compound 0.01 µM) was 238 nM and the IC50 (second compound 0.0316 µM) was 93.2 nM. For the same molecule, the IC50 (second compound 0.1 µM) was 37.8 nM, the IC50 (second compound 0.316 µM) was under 31.6 nM and the IC50 (second compound 1 µM) was under 31.6 nM. The viability, T/C [1] was 78.6%, the viability, T/C [2] was 67.9% and the viability, T/C [3] was 51.9%. The viability, T/C [4] was 38%, the viability, T/C [5] was 24.8% and the viability, T/C [6] was 17.2%. For the same molecule, the viability, T/C [7] was 84.7%, the viability, T/C [8] was 70.5% and the viability, T/C [9] was 39.2%. It also gave a viability, T/C [10] of 32.4%, a viability, T/C [11] of 21.2% and a viability, T/C [12] of 15.9%. It also gave a viability, T/C [13] of 62.3%, a viability, T/C [14] of 52.1% and a viability, T/C [15] of 30.2%. For the same molecule, the viability, T/C [16] was 23.8%, the viability, T/C [17] was 21.4% and the viability, T/C [18] was 11%. It also gave a viability, T/C [19] of 54%, a viability, T/C [20] of 34.4% and a viability, T/C [21] of 25.5%. It also gave a viability, T/C [22] of 19%, a viability, T/C [23] of 13.3% and a viability, T/C [24] of 6.82%. The viability, T/C [25] was 36.4%, the viability, T/C [26] was 26.7% and the viability, T/C [27] was 17.1%. It also gave a viability, T/C [28] of 10.5%, a viability, T/C [29] of 7.67% and a viability, T/C [30] of 4.44%. For the same molecule, the viability, T/C [31] was 24.3%, the viability, T/C [32] was 20.9% and the viability, T/C [33] was 11.7%. The viability, T/C [34] was 8.76%, the viability, T/C [35] was 5.6% and the viability, T/C [36] was 3.48%.

`CC(=O)c1c(C)c2cnc(Nc3ccc(N4CCNCC4)cn3)nc2n(C2CCCC2)c1=O` + COc1c(OCCCN2CCOCC2)ccc2c3n(c(=NC(=O)c4cnc(N)nc4)nc12)CCN3 gave an IC50 (second compound 0.00316 µM) of over 100 nM, an IC50 (second compound 0.01 µM) of over 100 nM and an IC50 (second compound 0.0316 µM) of over 100 nM. It also gave an IC50 (second compound 0.1 µM) of over 100 nM, an IC50 (second compound 0.316 µM) of 0.489 nM and an IC50 (second compound 1 µM) of under 0.316 nM. It also gave a viability, T/C (second compound 0.00316 µM, first compound 0.000316 µM) of 108%, a viability, T/C (second compound 0.00316 µM, first compound 0.001 µM) of 102% and a viability, T/C (second compound 0.00316 µM, first compound 0.00316 µM) of 94.8%. For the same molecule, the viability, T/C (second compound 0.00316 µM, first compound 0.01 µM) was 99.6%, the viability, T/C [1] was 97.3% and the viability, T/C [2] was 94.8%. For the same molecule, the viability, T/C (second compound 0.01 µM, first compound 0.000316 µM) was 105%, the viability, T/C (second compound 0.01 µM, first compound 0.001 µM) was 97.7% and the viability, T/C (second compound 0.01 µM, first compound 0.00316 µM) was 92.7%. For the same molecule, the viability, T/C (second compound 0.01 µM, first compound 0.01 µM) was 94%, the viability, T/C [7] was 98.6% and the viability, T/C [8] was 91.5%. It also gave a viability, T/C (second compound 0.0316 µM, first compound 0.000316 µM) of 77.5%, a viability, T/C (second compound 0.0316 µM, first compound 0.001 µM) of 84.4% and a viability, T/C (second compound 0.0316 µM, first compound 0.00316 µM) of 76.2%. For the same molecule, the viability, T/C (second compound 0.0316 µM, first compound 0.01 µM) was 80.9%, the viability, T/C [13] was 82.3% and the viability, T/C [14] was 79.4%. It also gave a viability, T/C (second compound 0.1 µM, first compound 0.000316 µM) of 70.8%, a viability, T/C (second compound 0.1 µM, first compound 0.001 µM) of 65% and a viability, T/C (second compound 0.1 µM, first compound 0.00316 µM) of 66.2%. The viability, T/C (second compound 0.1 µM, first compound 0.01 µM) was 64.1%, the viability, T/C [19] was 67.7% and the viability, T/C [20] was 51.2%. The viability, T/C (second compound 0.316 µM, first compound 0.000316 µM) was 51.9%, the viability, T/C (second compound 0.316 µM, first compound 0.001 µM) was 47.2% and the viability, T/C (second compound 0.316 µM, first compound 0.00316 µM) was 47.6%. The viability, T/C (second compound 0.316 µM, first compound 0.01 µM) was 43.8%, the viability, T/C [25] was 44.5% and the viability, T/C [26] was 37.5%. For the same molecule, the viability, T/C (second compound 1 µM, first compound 0.000316 µM) was 35.1%, the viability, T/C (second compound 1 µM, first compound 0.001 µM) was 35.9% and the viability, T/C (second compound 1 µM, first compound 0.00316 µM) was 32.2%. For the same molecule, the viability, T/C (second compound 1 µM, first compound 0.01 µM) was 31.9%, the viability, T/C [31] was 34.3% and the viability, T/C [32] was 26.1%.

`CCCS(=O)(=O)Nc1ccc(F)c(C(=O)c2c[nH]c3ncc(-c4ccc(Cl)cc4)cc23)c1F` + CC(Nc1ccc2c(c1)OCCn1cc(N3C(=O)OCC3C(F)F)nc1-2)C(N)=O was tested, and the IC50 (second compound 0.00316 µM) was 6110 nM, the IC50 (second compound 0.01 µM) was 6340 nM and the IC50 (second compound 0.0316 µM) was 6060 nM. The IC50 (second compound 0.1 µM) was 5730 nM, the IC50 (second compound 0.316 µM) was 4890 nM and the IC50 (second compound 1 µM) was 4580 nM. The viability, T/C [1] was 95.6%, the viability, T/C [2] was 105% and the viability, T/C [3] was 125%. It also gave a viability, T/C [4] of 117%, a viability, T/C [5] of 120% and a viability, T/C [6] of 2.95%. The viability, T/C [7] was 113%, the viability, T/C [8] was 118% and the viability, T/C [9] was 121%. It also gave a viability, T/C [10] of 125%, a viability, T/C [11] of 132% and a viability, T/C [12] of 3.03%. It also gave a viability, T/C [13] of 105%, a viability, T/C [14] of 103% and a viability, T/C [15] of 110%. The viability, T/C [16] was 119%, the viability, T/C [17] was 114% and the viability, T/C [18] was 3.59%. For the same molecule, the viability, T/C [19] was 91.9%, the viability, T/C [20] was 81.2% and the viability, T/C [21] was 102%. It also gave a viability, T/C [22] of 107%, a viability, T/C [23] of 111% and a viability, T/C [24] of 4.35%. It also gave a viability, T/C [25] of 82.3%, a viability, T/C [26] of 86.5% and a viability, T/C [27] of 87.9%. It also gave a viability, T/C [28] of 99.2%, a viability, T/C [29] of 78.9% and a viability, T/C [30] of 2.7%. For the same molecule, the viability, T/C [31] was 75.5%, the viability, T/C [32] was 75.4% and the viability, T/C [33] was 76.3%. It also gave a viability, T/C [34] of 61.3%, a viability, T/C [35] of 74.7% and a viability, T/C [36] of 2.07%.
